Assay [1] deals with T1, Type-1 angiotensin II receptor A (Rattus norvegicus, UniProt P25095).
T1 sequence (P25095 whole entry): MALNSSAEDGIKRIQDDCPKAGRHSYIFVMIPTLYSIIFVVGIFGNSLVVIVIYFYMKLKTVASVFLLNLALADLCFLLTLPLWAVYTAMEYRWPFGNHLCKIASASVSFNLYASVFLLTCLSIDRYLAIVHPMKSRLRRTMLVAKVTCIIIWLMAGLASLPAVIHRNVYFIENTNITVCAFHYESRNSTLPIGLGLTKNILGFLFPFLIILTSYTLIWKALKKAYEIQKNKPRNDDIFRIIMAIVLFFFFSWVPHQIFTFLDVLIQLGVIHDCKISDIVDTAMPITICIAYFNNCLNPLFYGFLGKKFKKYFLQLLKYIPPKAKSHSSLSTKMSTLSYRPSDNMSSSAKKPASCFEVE
Kind of assay: Inhibition of rat adrenal cortex angiotensin II. The class given is tissue-based.

Assay [2] deals with Rattus norvegicus. Kind of assay: Inhibition of AII induced mean arterial blood pressure in rat assessed as vasoconstrictor at 5 mg/kg, po. Format: functional.
A further assay concerns Staphylococcus aureus. Kind of assay: Antimicrobial activity against Staphylococcus aureus assessed as bacterial growth inhibition. Format: functional.
The subject of the next assay is Proteus vulgaris. Briefly: Antimicrobial activity against Proteus vulgaris assessed as bacterial growth inhibition. The class given is functional.
The test system of assay [3] is Staphylococcus epidermidis. Briefly: Antimicrobial activity against Staphylococcus epidermidis assessed as bacterial growth inhibition. The class given is functional.
A further assay deals with Candida albicans. Briefly: Antimicrobial activity against Candida albicans assessed as bacterial growth inhibition. Format: functional.
For the next assay, the system named is Citrobacter freundii. Kind of assay: Antimicrobial activity against Citrobacter freundii assessed as bacterial growth inhibition. The class given is functional.
The next assay concerns Klebsiella oxytoca. Kind of assay: Antimicrobial activity against Klebsiella oxytoca assessed as bacterial growth inhibition. The class given is functional.
For assay [4], the system named is Staphylococcus saprophyticus. Briefly: Antimicrobial activity against Staphylococcus saprophyticus assessed as bacterial growth inhibition. The class given is functional.
The next assay relates to Mycolicibacterium phlei. Kind of assay: Antimicrobial activity against Mycobacterium phlei assessed as bacterial growth inhibition. The class given is functional.
A further assay concerns Escherichia coli. Kind of assay: Antimicrobial activity against Escherichia coli assessed as bacterial growth inhibition. Format: functional.
The subject of the next assay is Micrococcus luteus. Kind of assay: Antimicrobial activity against Micrococcus luteus assessed as bacterial growth inhibition. The class given is functional.
Another assay relates to Bacillus subtilis. Kind of assay: Antimicrobial activity against Bacillus subtilis assessed as bacterial growth inhibition. The class given is functional.
The next assay concerns Pseudomonas aeruginosa. Briefly: Antimicrobial activity against Pseudomonas aeruginosa assessed as bacterial growth inhibition. Format: functional.
Another assay has as its system Proteus mirabilis. Kind of assay: Antimicrobial activity against Proteus mirabilis assessed as bacterial growth inhibition. Format: functional.
Assay [5] has as its system Rattus norvegicus. Kind of assay: Inhibition of AII induced rat assessed as vasoconstrictor at 15 mg/kg, iv. Format: functional.

Here are results for 28 molecules from ChEMBL document CHEMBL5260833, “An overview of quinazolines: Pharmacological significance and recent developments” (Eur J Med Chem, 2018).

SMILES strings stand for the structures. Converted amounts (≈) assume the structure as drawn.

`CCCCc1nc2ccc(C(C)O)cc2c(=O)n1Cc1ccc(-c2ccccc2-c2nn[nH]n2)cc1` (stereo not given) returned an IC50 in assay [1] of 5 nM. For the same molecule, the Activity in the assay with Rattus norvegicus [2] amounted to 65 mmHg.
For `CCCCNC(=O)Oc1ccc(-n2c(/C=C/c3ccc(Cl)cc3)nc3cc(Cl)ccc3c2=O)cc1`, the MIC (in the assay on Staphylococcus aureus; in the assay with Proteus vulgaris; in assay [3]; in the assay on Candida albicans; in the assay on Citrobacter freundii; in the assay with Klebsiella oxytoca) was 125 µg/mL (≈ 246 µM) in each case. Also, the MIC (in assay [4]; in the assay on Mycolicibacterium phlei; in the assay with Escherichia coli; in the assay on Micrococcus luteus; with Bacillus subtilis; in the assay on Pseudomonas aeruginosa) was 125 µg/mL (≈ 246 µM) each time. Besides, in the assay with Proteus mirabilis, the MIC worked out at 125 µg/mL (≈ 246 µM).
Turning to `O=c1c2ccc(Cl)cc2nc(/C=C/c2ccc(Cl)cc2)n1-c1ccc(OCC(O)CN2CCCCC2)cc1` (stereo not given), the MIC (in the assay with Staphylococcus aureus; in the assay with Proteus vulgaris; in assay [3]; with Candida albicans; with Citrobacter freundii; in the assay with Klebsiella oxytoca) was 125 µg/mL (≈ 227 µM) in each case. The MIC (in assay [4]; in the assay with Mycolicibacterium phlei; with Escherichia coli; in the assay with Micrococcus luteus; in the assay with Bacillus subtilis; in the assay with Pseudomonas aeruginosa) was 125 µg/mL (≈ 227 µM) in each case. In the assay on Proteus mirabilis, the MIC turned out to be 125 µg/mL (≈ 227 µM).
In turn, `CCCCc1nc2ccc(C(C)(C)O)cc2c(=O)n1Cc1ccc(-c2ccccc2-c2nn[nH]n2)cc1` yielded an IC50 in assay [1] of 5 nM. For the same molecule, the Activity in the assay on Rattus norvegicus [2] came to 65 mmHg.
For the molecule `CCC1Nc2ccc(C(C)C)cc2C(=O)N1Cc1ccc(-c2ccccc2-c2nn[nH]n2)cc1` (stereo not given), the inhibition in vivo at 15 mg/kg in the assay with Rattus norvegicus [5] turned out to be 88%. Moreover, half-maximal inhibition in assay [1] (IC50) was put at 90 nM.
Take `CCCCc1nc2ccc(C(C)(C)OC)cc2c(=O)n1Cc1ccc(-c2ccccc2-c2nn[nH]n2)cc1` [CL-329167]: in assay [1], 18 nM corresponded to half-maximal inhibition (IC50). Also, the Activity with Rattus norvegicus [2] was determined as 65 mmHg.
Take `CCCCC1Nc2ccccc2C(=O)N1Cc1ccc(-c2ccccc2-c2nn[nH]n2)cc1` (stereo not given): the inhibition in vivo at 15 mg/kg with Rattus norvegicus [5] is 88%. The IC50 in [1] was determined as 14000 nM.
In assay [1], `CCCCc1nc2ccc(C(C)OC)cc2c(=O)n1Cc1ccc(-c2ccccc2-c2nn[nH]n2)cc1` (stereo not given) showed an IC50 of 18 nM. Besides, the Activity with Rattus norvegicus [2] is 65 mmHg.
On to `O=c1c2ccc(Cl)cc2nc(/C=C/c2ccc(Cl)cc2)n1-c1ccc(O)cc1`, for which the MIC (with Staphylococcus aureus; in the assay with Proteus vulgaris; in [3]; in the assay on Candida albicans; in the assay with Citrobacter freundii; with Klebsiella oxytoca) was 125 µg/mL (≈ 305 µM) in each case. Besides, the MIC (in [4]; in the assay with Mycolicibacterium phlei; in the assay with Escherichia coli; in the assay with Micrococcus luteus; in the assay with Bacillus subtilis; with Pseudomonas aeruginosa) was 125 µg/mL (≈ 305 µM) in each case. Besides, in the assay with Proteus mirabilis, the minimum inhibitory concentration (MIC) was found to be 125 µg/mL (≈ 305 µM).
In the case of `CCOC(=O)Oc1ccc(-n2c(/C=C/c3ccc(Cl)cc3)nc3cc([N+](=O)[O-])ccc3c2=O)cc1`, the MIC (in the assay with Staphylococcus aureus; with Proteus vulgaris; in assay [3]; in the assay on Candida albicans; with Citrobacter freundii; in the assay with Klebsiella oxytoca) was 125 µg/mL (≈ 254 µM) in each case. Besides, the MIC (in assay [4]; with Mycolicibacterium phlei; in the assay with Escherichia coli; in the assay on Micrococcus luteus; with Bacillus subtilis; with Pseudomonas aeruginosa) was 125 µg/mL (≈ 254 µM) in each case. In the assay on Proteus mirabilis, the MIC came to 125 µg/mL (≈ 254 µM).
Turning to `O=c1c2ccc(Cl)cc2nc(/C=C/c2ccccc2[N+](=O)[O-])n1-c1ccc(O)cc1`, the MIC (in the assay with Staphylococcus aureus; with Proteus vulgaris; in assay [3]; with Candida albicans; in the assay on Citrobacter freundii; in the assay on Klebsiella oxytoca) was 125 µg/mL (≈ 298 µM) each time. Also, the minimal inhibitory concentration (MIC) (in [4]; in the assay on Mycolicibacterium phlei; in the assay with Escherichia coli; in the assay with Micrococcus luteus; with Bacillus subtilis; in the assay with Pseudomonas aeruginosa) was 125 µg/mL (≈ 298 µM) each time. Besides, the MIC in the assay on Proteus mirabilis came to 125 µg/mL (≈ 298 µM).
As to `CCOC(=O)Oc1ccc(-n2c(/C=C/c3ccc(Cl)cc3)nc3cc(Cl)ccc3c2=O)cc1`, the MIC (with Staphylococcus aureus; in the assay with Proteus vulgaris; in [3]; with Candida albicans; in the assay on Citrobacter freundii; in the assay on Klebsiella oxytoca) was 125 µg/mL (≈ 260 µM) each time. In addition, the MIC (in [4]; in the assay on Mycolicibacterium phlei; in the assay with Escherichia coli; in the assay on Micrococcus luteus; with Bacillus subtilis; in the assay with Pseudomonas aeruginosa) was 125 µg/mL (≈ 260 µM) throughout. Besides, the MIC with Proteus mirabilis was determined as 125 µg/mL (≈ 260 µM).
For `O=c1c2ccc(Cl)cc2nc(/C=C/c2ccc(Cl)cc2)n1-c1ccc(OCC2CO2)cc1` (stereo not given), the MIC (with Staphylococcus aureus; in the assay with Proteus vulgaris; in assay [3]; in the assay on Candida albicans; in the assay with Citrobacter freundii; with Klebsiella oxytoca) was 125 µg/mL (≈ 269 µM) each time. Besides, the MIC (in [4]; with Mycolicibacterium phlei; in the assay on Escherichia coli; with Micrococcus luteus; in the assay with Bacillus subtilis; with Pseudomonas aeruginosa) was 125 µg/mL (≈ 269 µM) each time. Further, the MIC in the assay on Proteus mirabilis is 125 µg/mL (≈ 269 µM).
In assay [1], `CCCCc1nc2ccc(C(OC)c3ccccc3)cc2c(=O)n1Cc1ccc(-c2ccccc2-c2nn[nH]n2)cc1` (stereo not given) showed a half-maximal inhibitory concentration (IC50) of more than 1000 nM. Also, in the assay with Rattus norvegicus [2], the Activity was 65 mmHg.
For `CCCCc1nc2ccc(C(O)CO)cc2c(=O)n1Cc1ccc(-c2ccccc2-c2nn[nH]n2)cc1` (stereo not given), in assay [1], the IC50 was more than 1000 nM. Also, the Activity with Rattus norvegicus [2] is 65 mmHg.
Consider `CCCC1Nc2ccccc2C(=O)N1Cc1ccc(-c2ccccc2-c2nn[nH]n2)cc1` (stereo not given), for which the inhibition in vivo at 15 mg/kg with Rattus norvegicus [5] worked out at 88%. In assay [1], this molecule gave an IC50 of 540 nM.
Regarding `O=c1c2ccc([N+](=O)[O-])cc2nc(/C=C/c2ccc(Cl)cc2)n1-c1ccc(OCC2CO2)cc1` (stereo not given), the MIC (with Staphylococcus aureus; in the assay on Proteus vulgaris; in [3]; with Candida albicans; in the assay on Citrobacter freundii; in the assay with Klebsiella oxytoca) was 125 µg/mL (≈ 263 µM) throughout. For the same molecule, the minimal inhibitory concentration (MIC) (in assay [4]; in the assay with Mycolicibacterium phlei; in the assay on Escherichia coli; with Micrococcus luteus; with Bacillus subtilis; with Pseudomonas aeruginosa) was 125 µg/mL (≈ 263 µM) each time. Besides, in the assay on Proteus mirabilis, the minimal inhibitory concentration (MIC) is 125 µg/mL (≈ 263 µM).
For the molecule `CCC1Nc2ccccc2C(=O)N1Cc1ccc(-c2ccccc2-c2nn[nH]n2)cc1` (stereo not given), the inhibition in vivo at 15 mg/kg in the assay with Rattus norvegicus [5] turned out to be 88%. Further, half-maximal inhibition in assay [1] (IC50) required 45000 nM.
`CCCCC(CCCC)C1Nc2ccccc2C(=O)N1Cc1ccc(-c2ccccc2-c2nnn[nH]2)cc1` (stereo not given): in the assay on Rattus norvegicus [5], the inhibition in vivo at 15 mg/kg came to 88%. In assay [1], this molecule came in with an IC50 of 12000 nM.
For `CCC1Nc2ccc(C)cc2C(=O)N1Cc1ccc(-c2ccccc2-c2nn[nH]n2)cc1` (stereo not given) the same measures were 88% and 13000 nM.
For `CCCC1Nc2ccc(C(C)C)cc2C(=O)N1Cc1ccc(-c2ccccc2-c2nn[nH]n2)cc1` (stereo not given), the inhibition in vivo at 15 mg/kg in the assay on Rattus norvegicus [5] was determined as 88%. The molecule also registered an IC50 in assay [1] of 50 nM.
The molecule `CCCCc1nc2ccc(C(CC)OC)cc2c(=O)n1Cc1ccc(-c2ccccc2-c2nn[nH]n2)cc1` (stereo not given) returned an IC50 in assay [1] of 18 nM. The Activity in the assay with Rattus norvegicus [2] was determined as 65 mmHg.
`O=c1c2ccc(Cl)cc2nc(/C=C/c2ccccc2[N+](=O)[O-])n1-c1ccc(OCC2CO2)cc1` (stereo not given): the MIC (with Staphylococcus aureus; in the assay with Proteus vulgaris; in assay [3]; in the assay with Candida albicans; in the assay on Citrobacter freundii; with Klebsiella oxytoca) was 125 µg/mL (≈ 263 µM) in each case. Moreover, the MIC (in assay [4]; in the assay on Mycolicibacterium phlei; in the assay with Escherichia coli; in the assay with Micrococcus luteus; in the assay on Bacillus subtilis; with Pseudomonas aeruginosa) was 125 µg/mL (≈ 263 µM) throughout. In the assay on Proteus mirabilis, the MIC came out at 125 µg/mL (≈ 263 µM).
Molecule `CCCCc1nc2ccc(COC)cc2c(=O)n1Cc1ccc(-c2ccccc2-c2nn[nH]n2)cc1` displayed an IC50 in assay [1] of more than 1000 nM. The Activity in the assay with Rattus norvegicus [2] was 65 mmHg.
As for `CCCCC1N(Cc2ccc(-c3ccccc3-c3nn[nH]n3)cc2)C(=O)c2ccccc2N1C` (stereo not given), in the assay with Rattus norvegicus [5], the inhibition in vivo at 15 mg/kg came to 88%. Also, in [1], the IC50 came to 14000 nM.
With `CCCCc1nc2ccc(C(C)NC(C)=O)cc2c(=O)n1Cc1ccc(-c2ccccc2-c2nn[nH]n2)cc1` (stereo not given), the IC50 in assay [1] was more than 1000 nM. For the same molecule, the Activity in the assay on Rattus norvegicus [2] was 65 mmHg.
On the same counts, the results for `CCCCc1nc2ccc(C(O)C(C)(C)C)cc2c(=O)n1Cc1ccc(-c2ccccc2-c2nn[nH]n2)cc1` (stereo not given) are more than 1000 nM and 65 mmHg.
Consider `CCCCC1Nc2ccc(C(C)C)cc2C(=O)N1Cc1ccc(-c2ccccc2-c2nn[nH]n2)cc1` (stereo not given), for which the inhibition in vivo at 15 mg/kg in the assay on Rattus norvegicus [5] was found to be 88%. Further, inhibition in assay [1] was half-maximal at 1100 nM (IC50).

Usually IC50 stands for the concentration at which inhibition is half-maximal. A high value points to lower potency. What is called MIC is the smallest concentration in the dilution series that meets the test's criterion for growth inhibition. In general, inhibition in vivo refers to how much of the control response was suppressed.
